The text below walks through data of patent US9809521B2, “Cannabidinoid derivatives” (priority 2011, dated 2017).

In one series the test system is U251 cells. The series can be described thus: Boyden chamber invasion assay. It is filed as cell-based, human. From the text: Boyden chamber U251 cell invasion studies with CBD and/or Δ^9-THC. In addition to uncontrolled cell growth, a hallmark phenotype of aggressive GBM tumor cells is their ability to migrate away for the primary tumor of origin and invade into neighboring CNS tissue.

The subject of a further series is SF126 cells. The series can be described thus: MTT cell proliferation assay. Particulars: read-out: IC50, SF126; seven day treatment; 95% confidence limits in brackets.
A further series concerns Id-1 promoter. The series can be described thus: Id-1 promoter luciferase reporter assay in MDA-MB231 cells. Particulars: 1.5 μM, 2 or 3 days. The class given is cell-based, human. The protocol:
Id-1 promoter reporter assays: A SacI-BspHI fragment of 2.2 kb corresponding to the 5′ upstream region of human Id-1 gene and driving a luciferase gene in a PGL-3 vector (Promega) was used (Id-1-sbsluc). Cells were plated in six well dishes in medium supplemented with 10% FBS and 5 μg/ml insulin. After 24 hours, cells were cotransfected with 6 μg of luciferase reporter plasmids and 2 μg of pCMVβ (Clontech) using Superfect reagent (Qiagen). pCMVβ contained bacterial β-galactosidase and served to control for variation in transfection efficiency. 3 hours after transfection, the cells were rinsed twice with PBS and were cultured in the absence or presence of CBD for 48-72 h. Cell pellets were lysed in 80 μl of reporter lysis buffer (Promega) for 10 min at room temperature. Lysed cells were centrifuged and supernatants harvested. Luciferase and β-gal assays were performed using Luciferase Assay System (Promega), β-Gal Assay Kit (Clontech) and a 2010 luminometer (Pharmingen).
Gene Expression Assays looking at Id-1 gene epression with CBD in MDA-MB231 cells. […] Twenty-four hours after transfection, MDA-MB231-Id-1-luc cells were treated with CBD for 2 or 3 days and luciferase activity was measured (FIG. 3, panel B and panel C). […] These findings correlated to the data obtained when the expression of the Id-1 protein was assessed by Western analysis.

Series [1] is described as follows: Tetrad assay (psychoactive properties of cannabinoids). Conditions: in vivo.
Series [2] can be described thus: Toxicity observation in the mouse models of metastasis. Particulars: in vivo.

`C=C(C)[C@@H]1CCC(C)=C[C@H]1c1c(O)cc(CCCCC)cc1O` [CBD, cannabidiol]: the “invasiveness of U251 cells” value in the series on U251 cells was “significantly reduce the invasiveness of U251 cells”. Also, the IC50 in the series on SF126 cells worked out at 730 nM. The “luciferase activity (Id-1 promoter)” value in the series on Id-1 promoter was “significant inhibition of luciferase activity”.
In the case of `CCCCC(C)(C)c1cc(O)c(C2CCC(C3CCCCC3)CC2)c(O)c1` (centres unmarked) [Compound O-1663], in series [1], the “activity in the tetrad assay” value is “little activity in the tetrad assay”. For the same compound, the “overt toxicity (weight, appearance, general activity)” value in series [2] is recorded as “No overt toxicity”.
